Tested on: MCH receptors
Test: MCH receptor activity class (method not given)
Conditions: class by percent of control at 10^−7 M or IC50

SMILES | class
Cc1cnc(N[C@H]2CC[C@@H](NC(=O)COc3cccc(Cl)c3)CC2)nc1N(C)C [compound 2879, 2-(3-chlorophenoxy)-N-(cis-4-{[4-(dimethylamino)-5-methylpyrimidin-2-yl]amino}cyclohexyl)acetamide] | 1 (Class 1: The value of percent of control at 10^−7 M was less than 40% or the value of IC50 was less than 50 nM.)
Cc1cccc(Oc2ncccc2C(=O)N[C@H]2CC[C@@H](Nc3ncc(C)c(N(C)C)n3)CC2)c1 [compound 2885, N-(cis-4-{[4-(dimethylamino)-5-methylpyrimidin-2-yl]amino}cyclohexyl)-2-(3-methylphenoxy)nicotinamide] | 1 (Class 1: The value of percent of control at 10^−7 M was less than 40% or the value of IC50 was less than 50 nM.)
Cc1cnc(N[C@H]2CC[C@@H](NC(=O)c3cccnc3Oc3cccc(F)c3)CC2)nc1N(C)C [compound 2886, N-(cis-4-{[4-(dimethylamino)-5-methylpyrimidin-2-yl]amino}cyclohexyl)-2-(3-fluorophenoxy)nicotinamide] | 1 (Class 1: The value of percent of control at 10^−7 M was less than 40% or the value of IC50 was less than 50 nM.)
COc1cccc(Oc2ncccc2C(=O)N[C@H]2CC[C@@H](Nc3ncc(C)c(N(C)C)n3)CC2)c1 [compound 2887, N-(cis-4-{[4-(dimethylamino)-5-methylpyrimidin-2-yl]amino}cyclohexyl)-2-(3-methoxyphenoxy)nicotinamide] | 1 (Class 1: The value of percent of control at 10^−7 M was less than 40% or the value of IC50 was less than 50 nM.)
COc1ccc(Oc2ncccc2C(=O)N[C@H]2CC[C@@H](Nc3ncc(C)c(N(C)C)n3)CC2)cc1 [compound 2888, N-(cis-4-{[4-(dimethylamino)-5-methylpyrimidin-2-yl]amino}cyclohexyl)-2-(4-methoxyphenoxy)nicotinamide] | 1 (Class 1: The value of percent of control at 10^−7 M was less than 40% or the value of IC50 was less than 50 nM.)
Cc1cnc(N[C@H]2CC[C@@H](NC(=O)c3cccnc3Oc3ccc(I)cc3)CC2)nc1N(C)C [compound 2889, N-(cis-4-{[4-(dimethylamino)-5-methylpyrimidin-2-yl]amino}cyclohexyl)-2-(4-iodophenoxy)nicotinamide] | 1 (Class 1: The value of percent of control at 10^−7 M was less than 40% or the value of IC50 was less than 50 nM.)
COc1ccccc1Oc1ncccc1C(=O)N[C@H]1CC[C@@H](Nc2ncc(C)c(N(C)C)n2)CC1 [compound 2890, N-(cis-4-{[4-(dimethylamino)-5-methylpyrimidin-2-yl]amino}cyclohexyl)-2-(2-methoxyphenoxy)nicotinamide] | 1 (Class 1: The value of percent of control at 10^−7 M was less than 40% or the value of IC50 was less than 50 nM.)
Cc1cnc(N[C@H]2CC[C@@H](NC(=O)c3cccnc3Oc3ccccc3F)CC2)nc1N(C)C [compound 2891, N-(cis-4-{[4-(dimethylamino)-5-methylpyrimidin-2-yl]amino}cyclohexyl)-2-(2-fluorophenoxy)nicotinamide] | 1 (Class 1: The value of percent of control at 10^−7 M was less than 40% or the value of IC50 was less than 50 nM.)
Cc1cnc(N[C@H]2CC[C@@H](NC(=O)c3cccnc3Oc3ccccc3Cl)CC2)nc1N(C)C [compound 2892, 2-(2-chlorophenoxy)-N-(cis-4-{[4-(dimethylamino)-5-methylpyrimidin-2-yl]amino}cyclohexyl)nicotinamide] | 1 (Class 1: The value of percent of control at 10^−7 M was less than 40% or the value of IC50 was less than 50 nM.)
Cc1cnc(N[C@H]2CC[C@@H](NC(=O)c3cccnc3Oc3cccc(Cl)c3)CC2)nc1N(C)C [compound 2893, 2-(3-chlorophenoxy)-N-(cis-4-{[4-(dimethylamino)-5-methylpyrimidin-2-yl]amino}cyclohexyl)nicotinamide] | 1 (Class 1: The value of percent of control at 10^−7 M was less than 40% or the value of IC50 was less than 50 nM.)
Cc1cnc(N[C@H]2CC[C@@H](NC(=O)c3cccnc3Oc3cccc(Br)c3)CC2)nc1N(C)C [compound 2894, 2-(3-bromophenoxy)-N-(cis-4-{[4-(dimethylamino)-5-methylpyrimidin-2-yl]amino}cyclohexyl)nicotinamide] | 1 (Class 1: The value of percent of control at 10^−7 M was less than 40% or the value of IC50 was less than 50 nM.)
Cc1cnc(N[C@H]2CC[C@@H](NC(=O)c3cccnc3Oc3cccc(C(F)(F)F)c3)CC2)nc1N(C)C [compound 2895] | 1 (Class 1: The value of percent of control at 10^−7 M was less than 40% or the value of IC50 was less than 50 nM.)
Cc1cnc(N[C@H]2CC[C@@H](NC(=O)c3cccc(C(F)(F)F)c3)CC2)nc1N(C)C [compound 2896, N-(cis-4-{[4-(dimethylamino)-5-methylpyrimidin-2-yl]amino}cyclohexyl)-3-(trifluoromethyl)benzamide] | 1 (Class 1: The value of percent of control at 10^−7 M was less than 40% or the value of IC50 was less than 50 nM.)
Cc1cnc(N[C@H]2CC[C@@H](NC(=O)c3cccc(F)c3)CC2)nc1N(C)C [compound 2897, N-(cis-4-{[4-(dimethylamino)-5-methylpyrimidin-2-yl]amino}cyclohexyl)-3-fluorobenzamide] | 1 (Class 1: The value of percent of control at 10^−7 M was less than 40% or the value of IC50 was less than 50 nM.)
Cc1cnc(N[C@H]2CC[C@@H](NC(=O)c3cccc(Br)c3)CC2)nc1N(C)C [compound 2898, 3-bromo-N-(cis-4-{[4-(dimethylamino)-5-methylpyrimidin-2-yl]amino}cyclohexyl)benzamide] | 1 (Class 1: The value of percent of control at 10^−7 M was less than 40% or the value of IC50 was less than 50 nM.)
Cc1cnc(N[C@H]2CC[C@@H](NC(=O)c3ccc(F)cc3)CC2)nc1N(C)C [compound 2899, N-(cis-4-{[4-(dimethylamino)-5-methylpyrimidin-2-yl]amino}cyclohexyl)-4-fluorobenzamide] | 1 (Class 1: The value of percent of control at 10^−7 M was less than 40% or the value of IC50 was less than 50 nM.)
COc1cc(OC)cc(C(=O)N[C@H]2CC[C@@H](Nc3ncc(C)c(N(C)C)n3)CC2)c1 [compound 2900, N-(cis-4-{[4-(dimethylamino)-5-methylpyrimidin-2-yl]amino}cyclohexyl)-3,5-dimethoxybenzamide] | 1 (Class 1: The value of percent of control at 10^−7 M was less than 40% or the value of IC50 was less than 50 nM.)
Cc1cnc(N[C@H]2CC[C@@H](NC(=O)c3ccc(F)cc3F)CC2)nc1N(C)C [compound 2901, N-(cis-4-{[4-(dimethylamino)-5-methylpyrimidin-2-yl]amino}cyclohexyl)-2,4-difluorobenzamide] | 1 (Class 1: The value of percent of control at 10^−7 M was less than 40% or the value of IC50 was less than 50 nM.)
Cc1cnc(N[C@H]2CC[C@@H](NC(=O)c3cc(F)ccc3F)CC2)nc1N(C)C [compound 2902, N-(cis-4-{[4-(dimethylamino)-5-methylpyrimidin-2-yl]amino}cyclohexyl)-2,5-difluorobenzamide] | 1 (Class 1: The value of percent of control at 10^−7 M was less than 40% or the value of IC50 was less than 50 nM.)

Reference: patent US20050197350A1, “Novel quinoline, tetrahydroquinazoline, and pyrimidine derivatives and methods of treatment related to the use thereof” (TAISHO PHARMACEUTICAL CO., LTD., priority 2003, published 2005)
